Laboratory results: patent US20220354855A1, “TREATMENT FOR GASTROINTESTINAL DISORDERS” (Mayo Foundation for Medical Education and Research, priority 2019, published 2022)

What was measured:
[1] = system: proximal colon mucosa submucosa preparations from germ free mice; assay: Ussing chamber short circuit current (Isc) in response to CDCA, colon mucosa-submucosa preparations; details: CDCA applied basolaterally, n=3, Wilcoxon, FIG. 4E
Description: FIGS. 4A-4E: An integrated metabolomics approach provides mechanistic insight into the effect of gut microbiota metabolism on host physiology. FIG. 4A is a series of graphs plotting the abundance of propionate (left), butyrate (center), and acetate (right) as determined by ^1H NMR using stool samples from healthy, IBS-C, and IBS-D subjects (averaged data per subject, pairwise Mann-Whitney tests). FIG. 4B is a pair of graphs plotting the abundance of tryptophan (left) and tryptamine (right) as determined by LC-MS in stool samples from healthy, IBS-C, and IBS-D subjects (averaged data per subject, pairwise Mann-Whitney tests). FIG. 4C is a series of graphs plotting the abundance of cholic acid (CA, left panel), chenodeoxycholic acid (CDCA, center panel), and deoxycholic acid sulfate (DCA-S, right panel) as determined by ^1H NMR with stool samples from healthy, IBS-C, and IBS-D subjects (mixed linear models correcting for subject). FIG. 4D is a series of graphs plotting the abundance of CA, CDCA, and DCA-S as determined by ^1H NMR using stool samples from healthy, IBS-C, and IBS-D subjects (averaged data per subject, pairwise Mann-Whitney tests). […]
Ussing chamber experiments: Colonic mucosal secretory responses were assessed using Ussing chamber setups. […]

[2] = system: colonic biopsies from healthy, IBS-C, and IBS-D subjects; assay: Ussing chamber short circuit current (ΔIsc) in response to serotonin (5-HT), colonic biopsies; parameters: species or system human; details: cumulative concentrations of 5-HT applied basolaterally; biopsies from IBS-C patients versus HC; FIG. 3C
Description: FIGS. 3A-3F: Integrated top-down bottom-up approach provides mechanistic insight into the effect of gut microbiota metabolism on host physiology. FIG. 3A is a series of graphs plotting the abundance of propionate (left), butyrate (center), and acetate (right) as determined by ^1H NMR. The data are shown as mixed linear models correcting for subject in stool samples from healthy, IBS-C, and IBS-D subjects. FIG. 3B is a graph plotting the abundance of acetate in colonic biopsies. FIG. 3C is a graph plotting maximal ΔIsc (Imax) following application of cumulative concentrations of serotonin (5-HT) basolaterally in colonic biopsies from healthy, IBS-C, and IBS-D subjects. FIG. 3D is a graph plotting baseline Isc observed in colonic biopsies from healthy, IBS-C, and IBS-D subjects (P-values are Tukey HSD adjusted from a linear model). FIG. 3E is a pair of graphs plotting the abundance of tryptophan (left) and tryptamine (right) in stool samples from healthy, IBS-C, and IBS-D subjects. […]
Ussing chamber experiments: Colonic mucosal secretory responses were assessed using Ussing chamber setups. […] Short circuit current (Isc) was continuously recorded using Acquire and Analyze software (Physiologic Instruments). ΔIsc values were calculated using Isc measurements before and after application of compounds to the basolateral side and normalized to the tissue area. […]

| SMILES | Isc in response to CDCA (ΔIsc, Imax) [1] | secretory response (maximal ΔIsc, Imax) to serotonin (5-HT) [2] |
| --- | --- | --- |
| C[C@H](CCC(=O)O)[C@H]1CC[C@H]2[C@@H]3[C@H](O)C[C@@H]4C[C@H](O)CC[C@]4(C)[C@H]3CC[C@]12C [CDCA, chenodeoxycholic acid] | significant increase in Isc | – |
| NCCc1c[nH]c2ccc(O)cc12 [serotonin (5-HT), serotonin] | – | significantly lower than HC |
